# Test results taken from patent publication US20240041899A1, “SOLID PREPARATION” (ASKA Pharmaceutical Co., Ltd., priority 2020, published 2024).
# Test system: rats having the urination disorder associated with diabetes
# Experiment: Test Example 4: urination disorder model associated with streptozocin-induced diabetes (tissue weights, blood glucose, cystometry, nomogram)
# Format: in vivo
# Conditions: for Bladder weight / Blood glucose level / Kidney weight / Prostate weight, dorsolateral prostate / Prostate weight, ventral prostate / Prostate weight, whole / Seminal vesicle weight: 4 weeks; for Bladder weight / Blood glucose level / Kidney weight / Prostate weight, dorsolateral prostate / Prostate weight, ventral prostate / Prostate weight, whole / Seminal vesicle weight / Body weight: average ± SD; for Dorsolateral prostate atrophy rate / Seminal vesicle atrophy rate / Ventral prostate atrophy rate / Whole prostate atrophy rate: relative to solvent group; for Body weight: model with induced diabetes (STZ), male rats
# Description: As described below, as a urination disorder model, a urination disorder model associated with diabetes was prepared to evaluate the urination disorder. This model has no benign prostatic hyperplasia and is a model of a urination disorder associated with neuropathy and smooth muscle contraction disorder.
# The body weights of rats (male, Crl:CD(SD), 5-week-old; Charles River Laboratories Japan, Inc.) were measured. After the rats were fasted overnight, the blood was collected from the caudal vein to measure the fasting blood glucose. On the basis of the body weight and the fasting blood glucose level, the rats were grouped or divided into two (2) groups by randomized, multivariable block allocation. The day after the rats were grouped, a first group received intraperitoneal administration of a citrate buffer (pH 4.5) (10 mL/kg) having a concentration of 0.1 mmol/L, and a second group received intraperitoneal administration of streptozocin (STZ; Sigma-Aldrich) (50 mg/kg). Streptozocin (STZ) was administered in the form of a solution of streptozocin having a concentration of 5 mg/mL in the citrate buffer.
# About one (1) week after streptozocin (STZ) was administered, the body weight and the fasting blood glucose were measured. In the streptozocin (STZ) administration group (the second group), individuals having a fasting blood glucose level of not less than 300 mg/dL were used as animals with induced diabetes. These animals with induced diabetes are a model having no abnormality of the prostate (having no benign prostatic hyperplasia). On the basis of the body weight and the fasting blood glucose level, the animals (models) with induced diabetes were grouped or divided into three (3) groups by randomized, multivariable block allocation.
# To the three model groups with induced diabetes, a 0.5 v/v % Polysorbate 80 solution (0.5% P) (10 mL/kg), the compound A (3 mg/kg), and the compound A (10 mg/kg) were orally administered, respectively, wherein the administration schedule in all groups was a frequency of once a day, only on weekdays, over four (4) weeks. Moreover, to the above-mentioned first group, a 0.5 v/v % Polysorbate 80 solution (0.5% P) (10 mL/kg) was orally administered in the same administration schedule (normal group). On the last day of administration, a cannula was inserted into and secured to the dome of the bladder under isoflurane anesthesia, and cystometry (Cystometogram, CMG) was conducted in the order of under awake condition and under urethane anesthesia to measure the intravesical pressure, the voided volume, and the residual urine volume. After the completion of the measurement, the blood was collected under deep isoflurane anesthesia, and then the prostate (ventral prostate, dorsolateral prostate), the seminal vesicle, the bladder, and the kidney were extracted and were each weighed. Moreover, the blood glucose level in the collected blood was measured.
# The test substances and the dosage in the test system (rats having the urination disorder associated with diabetes) are as follows. • Normal group: citrate buffer 10 mL/kg (intraperitoneal administration), 0.5% P 10 mL/kg (oral administration) (n=10) • Solvent group (control group): STZ 50 mg/kg (intraperitoneal administration), 0.5% P 10 mL/kg (oral administration) (n=10) • Group A3: STZ 50 mg/kg (intraperitoneal administration), Compound A 3 mg/kg (oral administration) (n=10) • Group A10: STZ 50 mg/kg (intraperitoneal administration), Compound A 10 mg/kg (oral administration) (n=9)
# The resulting data of the intravesical pressure, the voided volume, and the residual urine volume were analyzed, and the bladder capacity (mL), the residual urine volume […], and the urination efficiency (%) were determined as urination parameters in each urination. With respect to these urination parameters, the average value of two measurements was calculated and was taken as a measured value of each individual. […]
# [1] = STZ diabetes model, 3 mg/kg, vs solvent group
# [2] = STZ diabetes model, 10 mg/kg, vs solvent group
# [3] = STZ diabetes model, Group A3 and Group A10 (3 and 10 mg/kg)
# [4] = STZ diabetes model, oral 3 mg/kg
# [5] = STZ diabetes model, oral 10 mg/kg
smiles,measurement,setting,value
"CC(=O)O[C@]1(C(C)=O)C[C@@H](O)[C@H]2[C@@H]3C=C(Cl)C4=CC(=O)OC[C@]4(C)[C@H]3CC[C@@]21C [Compound A, 17α-acetoxy-6-chloro-15β-hydroxy-2-oxa-4,6-pregnadiene-3,20-dione]","bladder capacity, cystometry (CMG) under awake condition",[1],significantly reduced
same,"residual urine volume, cystometry (CMG) under anesthesia",[1],significantly decreased
same,"residual urine volume, cystometry (CMG) under awake condition",[1],significantly reduced
same,"urination efficiency, cystometry (CMG) under awake condition",[1],improved
same,"bladder capacity, cystometry (CMG) under awake condition",[2],significantly reduced
same,"residual urine volume, cystometry (CMG) under anesthesia",[2],significantly decreased
same,"residual urine volume, cystometry (CMG) under awake condition",[2],significantly reduced
same,"bladder capacity, cystometry (CMG) under anesthesia","STZ diabetes model, 10 mg/kg, vs solvent group (P=0.0336, Williams's multiple comparison test)",reduced
same,"urination efficiency, cystometry (CMG) under awake condition","STZ diabetes model, 10 mg/kg, vs solvent group (P=0.0359, Williams's multiple comparison test)",significantly improved
same,"action on the body weight, the blood glucose level, or the bladder and kidney weights",[3],no action or influence
same,"urination efficiency, cystometry (CMG) under anesthesia",[3],improved
same,bladder contraction force on urination by nomogram analysis,"STZ diabetes model, Group A3 and Group A10 (3 and 10 mg/kg), in comparison with the solvent group",strong bladder contraction force
same,prostate and seminal vesicle weights,"STZ diabetes model, Group A3 and Group A10 (3 and 10 mg/kg), vs solvent group",significantly decreased
same,therapeutic effect on diabetes,"STZ diabetes model, blood glucose level of Group A3 and Group A10 relative to the solvent group",no therapeutic effect
same,Bladder weight,[4],79.3 ± 17.5 mg/100 g body weight
same,Blood glucose level,[4],912.8 ± 177.3 mg/dL
same,Kidney weight,[4],1114.9 ± 189.2 mg/100 g body weight
same,"Prostate weight, dorsolateral prostate",[4],35.3 ± 7.8 mg/100 g body weight
same,"Prostate weight, ventral prostate",[4],62.2 ± 11.4 mg/100 g body weight
same,"Prostate weight, whole",[4],97.5 ± 17.7 mg/100 g body weight
same,Seminal vesicle weight,[4],44.3 ± 9.6 mg/100 g body weight
same,Dorsolateral prostate atrophy rate,[4],(44.2%)
same,Seminal vesicle atrophy rate,[4],(41.8%)
same,Ventral prostate atrophy rate,[4],(43.0%)
same,Whole prostate atrophy rate,[4],(43.4%)
same,Bladder weight,[5],72.9 ± 11.6 mg/100 g body weight
same,Blood glucose level,[5],846.7 ± 342.5 mg/dL
same,Kidney weight,[5],1171.0 ± 213.3 mg/100 g body weight
same,"Prostate weight, dorsolateral prostate",[5],28.8 ± 6.1 mg/100 g body weight
same,"Prostate weight, ventral prostate",[5],53.1 ± 13.5 mg/100 g body weight
same,"Prostate weight, whole",[5],81.9 ± 19.0 mg/100 g body weight
same,Seminal vesicle weight,[5],37.9 ± 6.4 mg/100 g body weight
same,Dorsolateral prostate atrophy rate,[5],(54.5%)
same,Seminal vesicle atrophy rate,[5],(50.2%)
same,Ventral prostate atrophy rate,[5],(51.3%)
same,Whole prostate atrophy rate,[5],(52.5%)
same,Body weight,oral 3 mg/kg once a day on weekdays 4 weeks,327.5 ± 51.3 g
same,Body weight,oral 10 mg/kg once a day on weekdays 4 weeks,356.4 ± 80.9 g
